Assay results: US9163012B2, “Carbamate and urea inhibitors of 11β-hydroxysteroid dehydrogenase 1” (Vitae Pharmaceuticals, Inc., priority 2009, dated 2015)
Where two headings read alike, the source gives them in different places.

Target: 11β-HSD1 (Homo sapiens (Human), UniProt P28845)
Assay: Biological Test Example 1: inhibition of a microsomal preparation of 11β-HSD1 (SPA)
Format: biochemical
Conditions: for inhibition at 0.111 µM: read-out: Average % inhibition at 111 nM
Procedure: All reactions were carried out at rt in 96 well clear flexible PET Microbeta plates (PerkinElmer). […] After a 10 minute pre-incubation, 50 μL of enzyme solution containing microsomes isolated from CHO cells overexpressing human 11-HSD1 (10-20 μg/ml of total protein) was added, and the plates were incubated for 90 minutes at rt. The reaction was stopped by adding 50 μl of the SPA beads suspension containing 10 μM […], 5 mg/ml protein A coated YSi SPA beads (GE Healthcare) and 3.3 μg/ml of anti-cortisol antibody (East Coast Biologics) in Superblock buffer (Bio-Rad). The plates were shaken for 120 minutes at rt, and the SPA signal corresponding to [^3H]cortisol was measured on a Microbeta plate reader.

[1] = Biological Test Example 1, microsomes from CHO cells overexpressing human 11β-HSD1, read-out: IC50 Range
[2] = Biological Test Example 1, read-out: IC50
[3] = read-out: Average % inhibition at 100 nM, Biological Test Example 1, 100 nM compound
[4] = Biological Test Example 1, 100 nM compound
[5] = read-out: Average % inhibition at 100 nM

Sequence of 11β-HSD1 (P28845 whole entry): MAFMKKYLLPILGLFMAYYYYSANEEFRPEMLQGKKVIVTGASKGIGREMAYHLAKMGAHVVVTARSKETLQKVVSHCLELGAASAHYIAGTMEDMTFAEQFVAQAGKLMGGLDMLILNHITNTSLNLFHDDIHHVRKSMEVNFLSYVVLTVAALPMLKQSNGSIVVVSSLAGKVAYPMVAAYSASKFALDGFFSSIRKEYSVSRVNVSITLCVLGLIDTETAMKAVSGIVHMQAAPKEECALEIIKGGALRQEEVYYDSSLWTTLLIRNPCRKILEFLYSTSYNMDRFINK

Row | SMILES | IC50 [1] [nM] | IC50 [2] [nM] | inhibition at 0.1 µM [3] [%] | Average % inhibition at 100 nM [4] [%] | also measured
1 | NC(=O)[C@]12CC3CC(C1)[C@@H](OC(=O)N1CC[C@H](n4c(=O)[nH]c5cc(F)ccc54)C1)C(C3)C2 [EXAMPLE 63, (S)-trans-1-carbamoyl-4-adamantyl 3-(5-fluoro-2-oxo-2,3-dihydro-1H-benzo[d]imidazol-1-yl)pyrrolidine-1-carboxylate] | < 100 | 1.01 | 91.2 | – | –
2 | Cc1cc(C)nc(C2CCN(C(=O)OC3C4CC5CC3CC(C(N)=O)(C5)C4)C2)n1 (single isomer, unassigned) [EXAMPLE 43 Isomer 2, cis-1-carbamoyl-4-adamantyl 3-(4,6-dimethylpyrimidin-2-yl)pyrrolidine-1-carboxylate] | > 100 | > 100 | – | −1.8 | –
3 | O=C(OC1C2CC3CC(C2)CC1C3)N1CCC[C@@H]1c1nc(-c2cc[n+]([O-])cc2)cs1 (stereo partly drawn) [EXAMPLE 52, (R)-4-(2-(1-((2-adamantyloxy)carbonyl)pyrrolidin-2-yl)thiazol-4-yl)pyridine 1-oxide] | < 100 | 1.19 | 95.1 | – | –
4 | COc1cnc(C2CCN(C(=O)OC3C4CC5CC3CC(C(N)=O)(C5)C4)C2)nc1 (single isomer, unassigned) [EXAMPLE 44 Isomer 1, 1-carbamoyl-4-adamantyl 3-(5-methoxypyrimidin-2-yl)pyrrolidine-1-carboxylate] | – | – | – | 95.2 | –
5 | Cc1ccc(C2CCN(C(=O)OC3C4CC5CC3CC(C(N)=O)(C5)C4)C2)nc1 (single isomer, unassigned) [EXAMPLE 35 Isomer 1, trans-1-carbamoyl-4-adamantyl 3-(5-methylpyridin-2-yl)pyrrolidine-1-carboxylate] | < 100 | 1.61 | – | 91.6 | –
6 | NC(=O)[C@]12CC3CC(C1)[C@@H](OC(=O)N1CC[C@H](Oc4ncc(F)cc4F)C1)C(C3)C2 [EXAMPLE 2, (S)-(trans-(1-carbamoyl-4-adamantyl)) 3-(3,5-difluoropyridin-2-yloxy)pyrrolidine-1-carboxylate] | < 100 | 0.68 | 96.2 | – | –
7 | COc1cnc(C2CCN(C(=O)OC3C4CC5CC3CC(C(N)=O)(C5)C4)C2)nc1 (single isomer, unassigned) [EXAMPLE 44 Isomer 2, 1-carbamoyl-4-adamantyl 3-(5-methoxypyrimidin-2-yl)pyrrolidine-1-carboxylate] | – | – | – | 2.4 | –
8 | O=C(O)c1ccc(C2CCCN(C(=O)OC3C4CC5CC(C4)CC3C5)C2)cc1 (centres unmarked) [EXAMPLE 18, 4-(1-(2-adamantyloxycarbonyl)piperidin-3-yl)benzoic acid] | < 100 | 27.8 | – | – | inhibition at 0.111 µM (Biological Test Example 1, 111 nM compound): 82.2%
9 | Cc1cnc(C2CCN(C(=O)OC3C4CC5CC3CC(C(N)=O)(C5)C4)C2)nc1 (single isomer, unassigned) [EXAMPLE 39 Isomer 1, 1-carbamoyl-4-adamantyl 3-(5-methylpyrimidin-2-yl)pyrrolidine-1-carboxylate] | < 100 | 2.99 | – | 59.7 | –
10 | Cc1nc2cccc(Cl)c2n1[C@H]1CCN(C(=O)OC2C3CC4CC2CC(C(N)=O)(C4)C3)C1 (stereo partly drawn) [EXAMPLE 76, (S)-1-carbamoyl-4-adamantyl 3-(7-chloro-2-methyl-1H-benzo[d]imidazol-1-yl)pyrrolidine-1-carboxylate] | < 100 | 1.11 | 93.6 | – | –
11 | Cn1c(C2CCN(C(=O)O[C@H]3C4CC5CC3C[C@](C(N)=O)(C5)C4)C2)nc2ccccc21 (stereo partly drawn) [EXAMPLE 31, (trans-1-carbamoyl-4-adamantyl) 3-(1-methyl-1H-benzo[d]imidazol-2-yl)pyrrolidine-1-carboxylate] | < 100 | 91.7 | 44.1 | – | –
12 | Cn1c(=O)n([C@H]2CCN(C(=O)O[C@H]3C4CC5CC3C[C@](C(N)=O)(C5)C4)C2)c2c(Cl)cccc21 [EXAMPLE 71, (S)-trans-1-carbamoyl-4-adamantyl 3-(7-chloro-3-methyl-2-oxo-2,3-dihydro-1H-benzo[d]imidazol-1-yl)pyrrolidine-1-carboxylate] | < 100 | 0.67 | 96.6 | – | –
13 | O=C(OC1C2CC3CC(C2)CC1C3)N1CCC(c2ncc(Cl)cn2)C1 (centres unmarked) [EXAMPLE 34, 2-adamantyl 3-(5-chloropyrimidin-2-yl)pyrrolidine-1-carboxylate] | < 100 | 0.52 | 96.8 | – | –
14 | NC(=O)C12CC3CC(C1)C(OC(=O)N1CCC(c4nccc(C(F)(F)F)n4)C1)C(C3)C2 (single isomer, unassigned) [EXAMPLE 48 Isomer 2, cis-1-carbamoyl-4-adamantyl 3-(4-(trifluoromethyl)pyrimidin-2-yl)pyrrolidine-1-carboxylate] | – | – | – | 16.1 | –
15 | O=C(O[C@H]1C2CC3CC1C[C@](O)(C3)C2)N1CC[C@@H](Oc2ccc(C(F)(F)F)cn2)C1 [EXAMPLE 4, (R)-(trans-(1-hydroxy-4-adamantyl)) 3-(5-(trifluoromethyl)pyridin-2-yloxy)pyrrolidine-1-carboxylate] | < 100 | 2.63 | 90.3 | – | –
16 | Cn1c(=O)n([C@H]2CCN(C(=O)O[C@H]3C4CC5CC3C[C@](C(N)=O)(C5)C4)C2)c2ccc(C#N)cc21 [EXAMPLE 70, (S)-trans-1-carbamoyl-4-adamantyl 3-(5-cyano-3-methyl-2-oxo-2,3-dihydro-1H-benzo[d]imidazol-1-yl)pyrrolidine-1-carboxylate] | < 100 | – | – | – | inhibition at 0.1 µM [5]: 91.3%
17 | NC(=O)c1cnc(C2CCN(C(=O)OC3C4CC5CC3CC(C(N)=O)(C5)C4)C2)nc1 (single isomer, unassigned) [EXAMPLE 47 Isomer 1, 1-carbamoyl-4-adamantyl 3-(5-carbamoylpyrimidin-2-yl)pyrrolidine-1-carboxylate] | > 100 | > 100 | – | 6.1 | –
18 | NC(=O)[C@]12CC3CC(C1)[C@@H](OC(=O)N1CCCC1c1ccccn1)C(C3)C2 (stereo partly drawn) [EXAMPLE 19, trans-1-carbamoyl-4-adamantyl 2-(pyridin-2-yl)pyrrolidine-1-carboxylate] | < 100 | 6.74 | – | – | inhibition at 0.1 µM [5]: 93.2%
19 | Cc1ccnc(C2CCN(C(=O)OC3C4CC5CC3CC(C(N)=O)(C5)C4)C2)n1 (single isomer, unassigned) [EXAMPLE 38 Isomer 1, 1-carbamoyl-4-adamantyl 3-(4-methylpyrimidin-2-yl)pyrrolidine-1-carboxylate] | < 100 | 3.34 | – | 93.1 | –
20 | Cc1ccc(C2CCN(C(=O)OC3C4CC5CC3CC(C(N)=O)(C5)C4)C2)nn1 (single isomer, unassigned) [EXAMPLE 37 Isomer 2] | – | – | – | 13.3 | –
21 | O=C(OC1C2CC3CC1CC(O)(C3)C2)N1CCC(c2ncc(Cl)cn2)C1 (single isomer, unassigned) [EXAMPLE 24 Isomer 1, trans-1-hydroxy-4-adamantyl 3-(5-chloropyrimidin-2-yl)pyrrolidine-1-carboxylate] | – | – | – | 98.6 | –
22 | NC(=O)C12CC3CC(C1)C(OC(=O)N1CCC(c4nccc(C(F)(F)F)n4)C1)C(C3)C2 (single isomer, unassigned) [EXAMPLE 48 Isomer 1, trans-1-carbamoyl-4-adamantyl 3-(4-(trifluoromethyl)pyrimidin-2-yl)pyrrolidine-1-carboxylate] | – | – | – | 94.5 | –
23 | NC(=O)[C@]12CC3CC(C1)[C@@H](OC(=O)N1CC[C@@H](n4c(=O)[nH]c5ccccc54)C1)C(C3)C2 [EXAMPLE 61, (R)-trans-1-carbamoyl-4-adamantyl 3-(2-oxo-2,3-dihydro-1H-benzo[d]imidazol-1-yl)pyrrolidine-1-carboxylate] | < 100 | 4.17 | 89.9 | – | –
24 | Cc1nc2cc(F)ccc2n1C1CCN(C(=O)OC2C3CC4CC2CC(C(N)=O)(C4)C3)C1 (single isomer, unassigned; isomer 2) [EXAMPLE 74 Isomer 2] | – | – | – | – | Average % inhibition at 100 nM: 83.2%; IC50 (read-out: IC50): 16.6 nM; IC50 (read-out: IC50 Range): < 100 nM
25 | Cn1ccc(-c2cnc(C3CCN(C(=O)OC4C5CC6CC4CC(C(N)=O)(C6)C5)C3)nc2)cc1=O (single isomer, unassigned; isomer 1) [EXAMPLE 57 Isomer 1, trans-1-carbamoyl-4-adamantyl 3-(5-(1-methyl-2-oxo-1,2-dihydropyridin-4-yl)pyrimidin-2-yl)pyrrolidine-1-carboxylate] | – | – | – | – | Average % inhibition at 100 nM: 65.0%; IC50 (read-out: IC50): 50.5 nM; IC50 (read-out: IC50 Range): < 100 nM
26 | O=C(OC1C2CC3CC1CC(C(=O)O)(C3)C2)N1CCC(c2ncc(Cl)cn2)C1 (single isomer, unassigned) [EXAMPLE 46 Isomer 1, trans-4-((3-(5-chloropyrimidin-2-yl)pyrrolidine-1-carbonyl)oxy)adamantane-1-carboxylic acid] | > 100 | > 100 | – | 22.4 | –
27 | CCOC(=O)C1(Cc2ccccc2OC)CCCN(C(=O)OC2C3CC4CC(C3)CC2C4)C1 (centres unmarked) [EXAMPLE 14, 1-(2-adamantyl) 3-ethoxycarbonyl-3-(2-methoxybenzyl)piperidine-1-carboxylate] | < 100 | – | – | – | inhibition at 0.111 µM: 87.6%; IC50 (read-out: IC50): 7.15 nM
